Results on 14 molecules are retold here after patent publication US4874773A, “3-Aminocarbonyl-1,4-dihydropyridine-5-carboxylic acid compounds, and pharmaceutical composition containing the same” (priority 1985, dated 1989).

In assay [1] the test system is isolated aorta. The experiment in a line: Experiment 3 Relaxing activity on the isolated aorta (30 mM KCl contracted). Details: species or system Japanese white rabbit. Conditions: for EC50: Oryctolagus cuniculus, 30 mM KCl contraction, maximum relaxation by papaverine = 100%, read-out: EC50 (concentration for 50% relaxation); for relaxing / vasodilating activity on isolated aorta (in words): Table 8, comparison with nifedipine and nicardipine hydrochloride, etc. where stated.
Description: Japanese white rabbit (weighing 2.3-2.7 kg) was sacrificed by bleeding from common carotid artery. Immediately, the aorta was isolated and cut into a sprial strip. The strip preparation was vertically suspended under a resting tension of 2.0 g in a tissue bath containing 20 ml of modified Ringer solution while bubbling with a mixture of 95% O2 +5% CO2 by connecting one end of the strip to a lever of the above-mentioned FD pick up. The aortic strip was contracted with 30 mM KCl. When the contraction became constant, the test compound was accumulatively administered, and the relaxing effect was measured. After the final treatment, 10^-4T M papaverine was administered and the maximum relaxation obtained thereby was taken as 100%. In comparison with the maximum relaxation obtained by papaverine, the rate of relaxation by the test compounds was evaluated, and the concentration of the test compounds for obtaining 50% relaxation (EC50) was calculated.
The test compound was dissolved in ethanol, and the solution was diluted in 100 to 1×10^4 folds with a nutrient solution, and the diluted solution was administered.

The test system of assay [2] is isolated heart. Briefly: Experiment 2-1 Activity on isolated heart. Details: species or system Japanese white rabbit. Conditions: for activation at 3 µg/heart / inhibition at 3 µg/heart, 3 µg/heart / inhibition at 3 µg/heart: Oryctolagus cuniculus, 3 μg/heart; for activation at 3 µg/heart: read-out: Increase of coronary perfusion; for inhibition at 3 µg/heart, 3 µg/heart: read-out: Inhibitory rate of systole; for inhibition at 3 µg/heart: read-out: Reducing rate of heart pulse. As to the method:
Japanese white rabbit (weighing 2.2-2.5 kg) was anesthetized by introvenous injection of nembutal (20 mg/kg) and then sacrificed by bleeding from common carotid artery. […] After stabilizing the heart preparation for 90 minutes, the test compound was administered. There were measured the perfusion volume with a drop-counting meter (ET-600G type, manufactured by Nippon Koden K.K.) and the heart pulse and the contractility via a force-displacement transducer (FD pick up, SB-IT type, manufactured by Nippon Koden K.K.) (for measuring heart pulse, an instant pulse meter (AT-601G type, minufactured by Nippon Koden K.K.) being further used).

Assay [3] relates to Spontaneously hypertensive male rats. Briefly: Experiment 1-1 Hypotensive activity (oral, conscious spontaneously hypertensive rats). Format: in vivo, rat. Conditions: for Recovering time / Time for recovering 1/2 of max. hypotension / Time until reaching to max. hypotension / Maximum hypotension: 10 mg/kg oral; for Maximum hypotension: mean blood pressure; for hypotensive activity (in words): Table 4, comparison with nifedipine and nicardipine hydrochloride where stated.
Description: Spontaneously hypertensive male rats (13-15 week age, one group: 3 rats) were used. […] The rats were fixed in a Howlman cage without fasting, and the femoral arterial pressure was measured by a direct method without anesthesia with a cannula which was previously inserted into the femoral artery of the animal, via a pressure transducer (MPU-0.5, manufactured by Nippon Koden K.K.). The test compounds were orally administered in the form of a suspension in 0.5% methyl cellulose solution in a dose of 10 mg/kg (in some compounds, 3 mg/kg). In the control group, only 0.5% methyl cellulose solution was administered likewise. The blood pressure was measured for 5 hours after the administration of test compounds.

“Also recorded” adds a separate entry of the source.

`CC1=C(C(=O)NC(C)C)C(c2ccccc2[N+](=O)[O-])C(C(=O)OCCCC(C)C)=C(C)N1` (stereo not shown) [Example 51]: the EC50 in assay [1] was 130 nM. Also, in assay [2], the activation at 3 µg/heart came out at 40%; the inhibition at 3 µg/heart, 3 µg/heart came to 30%; the inhibition at 3 µg/heart came to 25%. Moreover, in assay [3], the Recovering time was above 5.0 h, the “Time for recovering 1/2 of max. hypotension” value (“Time … of max. hypotension” for short) worked out at 3.0 h, the “Time until reaching to max. hypotension” value came to 30 min and the Maximum hypotension is listed as 40 mmHg.

Turning to `COC(=O)C1=C(C)NC(C)=C(C(=O)NC(C)C)C1c1ccccc1[N+](=O)[O-]` (stereo not shown) [Example 5, methyl 2,6-dimethyl-3-isopropylaminocarbonyl-4-(o-nitrophenyl)-1,4-dihydropyridine-5-carboxylate], in assay [1], the EC50 amounted to 20 nM and the “relaxing / vasodilating activity on isolated aorta (in words)” value (shortened to “relaxing / vasodilating activity”) is on record as “the same or more potent activity”. For the same molecule, in assay [2], the activation at 3 µg/heart came to 28%; the inhibition at 3 µg/heart, 3 µg/heart was found to be 15%; the inhibition at 3 µg/heart was found to be 25%. In addition, the “coronary vasodilating activity (in words)” value in assay [2] (Table 6, comparison with nifedipine and nicardipine hydrochloride, etc.) is given as “the same or more potent coronary vasodilating activity with longer duration”. In assay [3], the Recovering time was above 5.0 h, the “Time … of max. hypotension” value was 5.0 h, the “Time until reaching to max. hypotension” value came out at 15 min and the Maximum hypotension is 70 mmHg. Also, in assay [3], the “hypotensive activity (in words)” value is “the same or more potent activity with longer duration”.

As to `CCCCOC(=O)C1=C(C)NC(C)=C(C(=O)NC(C)C)C1c1ccccc1[N+](=O)[O-]` (stereo not shown) [Example 6, n-butyl 2,6-dimethyl-3-isopropylaminocarbonyl-4-(o-nitrophenyl)-1,4-dihydropyridine-5-carboxylate], in assay [1], the EC50 was determined as 12 nM and the “relaxing / vasodilating activity” value is reported as “the same or more potent activity”. For the same molecule, in assay [2], the activation at 3 µg/heart stood at 35%; the inhibition at 3 µg/heart, 3 µg/heart amounted to 25%; the inhibition at 3 µg/heart is 13%. In assay [3], the Recovering time was found to be 5.0 h, the “Time … of max. hypotension” value came out at 3.5 h, the “Time until reaching to max. hypotension” value came to 15 min and the Maximum hypotension came out at 57 mmHg.

Consider `CCOC(=O)C1=C(C)NC(C)=C(C(=O)N(C)C)C1c1cccc([N+](=O)[O-])c1` (stereo not shown) [E, reference compound], for which the EC50 in assay [1] was above 1000 nM. In addition, in assay [2], the activation at 3 µg/heart turned out to be 0%; the inhibition at 3 µg/heart, 3 µg/heart is 0%; the inhibition at 3 µg/heart amounted to 1%. Further, in assay [3], the Recovering time is 1.0 h, the “Time … of max. hypotension” value stood at 0.5 h, the “Time until reaching to max. hypotension” value was found to be 15 min and the Maximum hypotension is recorded as 5 mmHg.

Take `CCCCOC(=O)C1=C(C)NC(C)=C(C(=O)NCCC)C1c1cccc([N+](=O)[O-])c1` (stereo not shown) [Example 68]: the EC50 in assay [1] worked out at 100 nM. In addition, in assay [2], the activation at 3 µg/heart was determined as 29%; the inhibition at 3 µg/heart, 3 µg/heart was 6%; the inhibition at 3 µg/heart is 11%. In assay [3], the Recovering time stood at 1.0 h, the “Time … of max. hypotension” value amounted to 0.5 h, the “Time until reaching to max. hypotension” value is 15 min and the Maximum hypotension came out at 5 mmHg.

Regarding `CCCCOC(=O)C1=C(C)NC(C)=C(C(=O)NC(C)C)C1c1cccc([N+](=O)[O-])c1` (stereo not shown) [Example 64], in assay [1], the EC50 is 150 nM. Further, in assay [2], the activation at 3 µg/heart was 12%; the inhibition at 3 µg/heart, 3 µg/heart turned out to be 0%; the inhibition at 3 µg/heart was 4%. In assay [3], the Recovering time amounted to 5.0 h, the “Time … of max. hypotension” value was 2.0 h, the “Time until reaching to max. hypotension” value was determined as 30 min and the Maximum hypotension amounted to 57 mmHg.

As to `CCCCCCCOC(=O)C1=C(C)NC(C)=C(C(=O)NC(C)C)C1c1ccccc1[N+](=O)[O-]` (stereo not shown) [Example 1, n-heptyl 2,6-dimethyl-3-isopropylaminocarbonyl-4-(o-nitrophenyl)-1,4-dihydropyridine-5-carboxylate], in assay [1], the EC50 was 580 nM and the “relaxing / vasodilating activity” value is given as “somewhat weak vasodilating activity”. For the same molecule, in assay [2], the activation at 3 µg/heart stood at 25%; the inhibition at 3 µg/heart, 3 µg/heart was 40%; the inhibition at 3 µg/heart is 15%. For the same molecule, in assay [2] (Table 6), the “inhibitions on the heart pulse and contactility (in words)” value is “moderate inhibitions on the heart pulse and contactility”. In assay [3], the Recovering time is above 5.0 h, the “Time … of max. hypotension” value is above 5.0 h, the “Time until reaching to max. hypotension” value stood at 30 min and the Maximum hypotension is 78 mmHg. The “hypotensive activity (in words)” value in assay [3] is listed as “the same or more potent activity with longer duration; also recorded: potent hypotensive activity”.

`CCCOC(=O)C1=C(C)NC(C)=C(C(=O)NC(C)C)C1c1ccccc1[N+](=O)[O-]` (stereo not shown) [Example 44]: in assay [1], the EC50 was 17 nM and the “relaxing / vasodilating activity” value is “the same or more potent activity”. Also, in assay [2], the activation at 3 µg/heart turned out to be 30%; the inhibition at 3 µg/heart, 3 µg/heart stood at 20%; the inhibition at 3 µg/heart was found to be 16%. Further, in assay [3], the Recovering time worked out at 4.0 h, the “Time … of max. hypotension” value was 2.5 h, the “Time until reaching to max. hypotension” value is 15 min and the Maximum hypotension is 60 mmHg.

With `CCOC(=O)C1=C(C)NC(C)=C(C(=O)NC(C)C)C1c1ccccc1[N+](=O)[O-]` (stereo not shown) [Example 43], in assay [1], the EC50 was found to be 18 nM and the “relaxing / vasodilating activity” value is “the same or more potent activity”. Also, in assay [2], the activation at 3 µg/heart is 35%; the inhibition at 3 µg/heart, 3 µg/heart stood at 35%; the inhibition at 3 µg/heart was determined as 40%. Besides, in assay [3], the Recovering time stood at 5.0 h, the “Time … of max. hypotension” value is 2.5 h, the “Time until reaching to max. hypotension” value came to 15 min and the Maximum hypotension amounted to 68 mmHg.

In the case of `CCCCCCCCCCOC(=O)C1=C(C)NC(C)=C(C(=O)NC(C)C)C1c1ccccc1[N+](=O)[O-]` (stereo not shown) [Example 52], the EC50 in assay [1] was 420 nM. Also, in assay [2], the activation at 3 µg/heart amounted to 20%; the inhibition at 3 µg/heart, 3 µg/heart is 45%; the inhibition at 3 µg/heart worked out at 15%. Besides, the “inhibitions on the heart pulse and contactility (in words)” value in assay [2] (Table 6) is “moderate inhibitions on the heart pulse and contactility”. Further, in assay [3], the Recovering time worked out at 1.0 h, the “Time … of max. hypotension” value is 0.5 h, the “Time until reaching to max. hypotension” value worked out at 15 min and the Maximum hypotension is reported as 12 mmHg.

As to `CCCCCOC(=O)C1=C(C)NC(C)=C(C(=O)NC(C)C)C1c1ccccc1[N+](=O)[O-]` (stereo not shown) [Example 8, n-pentyl 2,6-dimethyl-3-isopropylaminocarbonyl-4-(o-nitrophenyl)-1,4-dihydropyridine-5-carboxylate], in assay [1], the EC50 turned out to be 30 nM and the “relaxing / vasodilating activity” value is reported as “the same or more potent activity”. For the same molecule, in assay [2], the activation at 3 µg/heart came out at 35%; the inhibition at 3 µg/heart, 3 µg/heart worked out at 13%; the inhibition at 3 µg/heart was 5%. For the same molecule, in assay [3], the Recovering time worked out at 5.0 h, the “Time … of max. hypotension” value stood at 4.0 h, the “Time until reaching to max. hypotension” value was found to be 15 min and the Maximum hypotension turned out to be 30 mmHg.

As for `CC1=C(C(=O)NC(C)C)C(c2ccccc2[N+](=O)[O-])C(C(=O)OCC(C)C)=C(C)N1` (stereo not shown) [Example 46], in assay [1], the EC50 is 70 nM and the “relaxing / vasodilating activity” value is “the same or more potent activity”. Further, in assay [2], the activation at 3 µg/heart was determined as 14%; the inhibition at 3 µg/heart, 3 µg/heart amounted to 9%; the inhibition at 3 µg/heart turned out to be 3%. Also, in assay [3], the Recovering time was 1.5 h, the “Time … of max. hypotension” value is 0.5 h, the “Time until reaching to max. hypotension” value is 15 min and the Maximum hypotension is on record as 10 mmHg.

Consider `CC1=C(C(=O)NC(C)C)C(c2ccccc2[N+](=O)[O-])C(C(=O)OC(C)C)=C(C)N1` (stereo not shown) [Example 45], for which the EC50 in assay [1] is 170 nM. Further, in assay [2], the activation at 3 µg/heart turned out to be 0%; the inhibition at 3 µg/heart, 3 µg/heart was determined as 0%; the inhibition at 3 µg/heart amounted to 0%. In assay [3], the Recovering time turned out to be 1.5 h, the “Time … of max. hypotension” value was determined as 0.5 h, the “Time until reaching to max. hypotension” value was found to be 15 min and the Maximum hypotension is 15 mmHg.

In the case of `CC1=C(C(=O)NC(C)C)C(c2cccc([N+](=O)[O-])c2)C(C(=O)OCC(C)C)=C(C)N1` (stereo not shown) [Example 65], in assay [1], the EC50 was found to be 130 nM. Besides, in assay [2], the activation at 3 µg/heart amounted to 8%; the inhibition at 3 µg/heart, 3 µg/heart worked out at 5%; the inhibition at 3 µg/heart stood at 8%. In addition, in assay [3], the Recovering time turned out to be 2.5 h, the “Time … of max. hypotension” value was 1.5 h, the “Time until reaching to max. hypotension” value was found to be 30 min and the Maximum hypotension was 50 mmHg.
